Experimental findings from patent US20240208901A1, “Deuterated 3,3'-Diselenodipropionic Acid (DSePA) and Its Use as an Anticancer or Radioprotective Agent” (Secretary, Department of Atomic Energy, priority 2022, published 2024) are described below.

Holding throughout (assay type): cell-based, human
Assay [1] relates to H1975 cells. Put plainly: MTT assay, anti-proliferative effect in H1975 cells. To be noted: Homo sapiens, NCI-H1975, 48 h treatment, read-out: IC50 to inhibit cell proliferation. As to the method:
(§1) Therefore, D-DSePA was compared with un-deuterated DSePA for its anticancer activity in A549, H1975 and H3122 cell lines which are representative of NSCLC. For this, above cells were treated with the varying concentrations (0.1-100 μM) of DSePA/D-DSePA for 48 h and the cell viability was determined by MTT assay (FIG. 9A-C). The plot of percent (%) cytotoxicity (100-% viability) versus the concentration of DSePA/D-DSePA was used to estimate the half maximum concentration (IC50) of above compounds to inhibit the proliferation of cells. […] Employing these values, the therapeutic index (IC50 in normal lung cell/IC50 in lung cancer cell) of DSePA and D-DSePA in different pairs of normal versus cancerous cells (viz., A549/WI-38, A549/WI-26 VA4, H1975/WI-38, H1975/WI-26 VA4, H3122/WI-38 and H3122/WI-26 VA4) was calculated (Table-3). […]
(§2) MTT Assay—To evaluate the anti-proliferative effect of D-DScPA and DScPA, Cells (˜5×10^3) suspended in 100 μl of complete culture medium were seeded in each well of 96 well plates. […] The percentage (%) cytotoxicity was calculated from the decrease in absorbance at 570 nm of treated groups as compared to that of control group. […] The therapeutic index was calculated by normalizing the IC50 concentration of D-DSePA/DSePA in non-cancerous cells to that in cancerous cells.

The test system of assay [2] is WI-26 VA4 cells. The assay can be described thus: MTT assay, toxicity in non-cancerous lung fibroblast WI-26 VA4 cells. As to conditions: Homo sapiens, WI26VA4, 48 h post treatment, read-out: IC50 for inhibiting the cell proliferation.
Text: as §1, with “For this, above cells were treated with the varying concentrations (0.1-100 μM) of DSePA/D-DSePA for 48 h and the cell viability was determined by MTT assay (FIG. 9A-C).” left out, “cells. […] Similarly, the toxicity of DSePA/D-DSePA was studied in non-cancerous lung fibroblast cells, WI-38 and WI-26 VA4 in the concentration range of 0.1 to 1000 μM at 48 h post treatment by MTT assay (FIG. 9D and 9E).” for “cells.”
as §2
On the technique in general: Tetrazolium assays rely on reduction of a dye to a coloured formazan, in cell work by metabolically active cells.

The subject of assay [3] is WI-38 cells. The assay can be described thus: MTT assay, toxicity in non-cancerous lung fibroblast WI-38 cells. To be noted: Homo sapiens, WI-38, WI38 cells, 48 h post treatment, read-out: IC50 for inhibiting the cell proliferation.
Text: as §1, with “For this, above cells were treated with the varying concentrations (0.1-100 μM) of DSePA/D-DSePA for 48 h and the cell viability was determined by MTT assay (FIG. 9A-C).” left out, “cells. […] Similarly, the toxicity of DSePA/D-DSePA was studied in non-cancerous lung fibroblast cells, WI-38 and WI-26 VA4 in the concentration range of 0.1 to 1000 μM at 48 h post treatment by MTT assay (FIG. 9D and 9E).” for “cells.”
as §2

Assay [4] has as its system lung cancer cell lines (A549, H1975 and H3122) versus normal lung cells (WI-38 and WI-26 VA4). Put plainly: Therapeutic index by MTT assay, lung cancer cell lines versus normal lung cells. To be noted: for Therapeutic Index (IC50 in normal cell / IC50 in cancer cells): 48 h post-treatment. The procedure:
Therefore, D-DSePA was compared with un-deuterated DSePA for its anticancer activity in A549, H1975 and H3122 cell lines which are representative of NSCLC. For this, above cells were treated with the varying concentrations (0.1-100 μM) of DSePA/D-DSePA for 48 h and the cell viability was determined by MTT assay (FIG. 9A-C). The plot of percent (%) cytotoxicity (100-% viability) versus the concentration of DSePA/D-DSePA was used to estimate the half maximum concentration (IC50) of above compounds to inhibit the proliferation of cells. […] Similarly, the toxicity of DSePA/D-DSePA was studied in non-cancerous lung fibroblast cells, WI-38 and WI-26 VA4 in the concentration range of 0.1 to 1000 μM at 48 h post treatment by MTT assay (FIG. 9D and 9E). […] Employing these values, the therapeutic index (IC50 in normal lung cell/IC50 in lung cancer cell) of DSePA and D-DSePA in different pairs of normal versus cancerous cells (viz., A549/WI-38, A549/WI-26 VA4, H1975/WI-38, H1975/WI-26 VA4, H3122/WI-38 and H3122/WI-26 VA4) was calculated (Table-3). […] The average therapeutic index of DSePA and D-DSePA estimated from above study was 11.05±1.5 and 78.7±29.2 respectively (FIG. 10).
MTT Assay—To evaluate the anti-proliferative effect of D-DScPA and DScPA, Cells (˜5×10^3) suspended in 100 μl of complete culture medium were seeded in each well of 96 well plates. The cells were allowed to attach and grow for 24 h, treated with desired concentrations of D-DSePA/DScPA dissolved in culture medium for 48 h and then processed for MTT assay as described in literature. The percentage (%) cytotoxicity was calculated from the decrease in absorbance at 570 nm of treated groups as compared to that of control group. The % cytotoxicity was plotted as a function of the concentration of D-DSePA and DSePA and from this curve, the concentration of D-DSePA/DScPA causing 50% toxicity (IC50) was estimated. The therapeutic index was calculated by normalizing the IC50 concentration of D-DSePA/DSePA in non-cancerous cells to that in cancerous cells.

In the case of `O=C(O)CC[Se][Se]CCC(=O)O` [DSePA, 3,3′-diselenodipropionic acid], the IC50 in assay [1] turned out to be 10.6 ± 1.1 µM; in assay [2] it was 151 ± 3.3 µM; in assay [3], 171 ± 2.2 µM. In addition, the “Therapeutic Index (IC50 in normal cell / IC50 in cancer cells)” value in assay [4] (A549/WI-26 VA4, MTT assay) was 9.9 ± 0.5; in assay [4] (A549/WI-38, MTT assay) it was 11.2 ± 0.6; in assay [4] (H1975/WI-26 VA4, MTT assay), 14.2 ± 0.7; in assay [4] (H1975/WI-38, MTT assay) it was 16.1 ± 0.8; in assay [4] (H3122/WI-26 VA4, MTT assay), 7.0 ± 0.4; in assay [4] (H3122/WI-38, MTT assay), 7.9 ± 0.4. This compound displayed an average therapeutic index in assay [4] (mean of six normal/cancer cell pairs, mean±SEM (n=6), MTT assay) of 11.05±1.5.
